# Experimental data published in patent publication US20070208087A1, “Compounds, compositions and methods for the treatment of inflammatory diseases” (priority 2001, published 2007).
# “And” between values parts separate entries of the source, which are not always exact repeats. Equal values may be shown once. Read-outs that look alike come from different tables or passages of the source.
# Columns and labels:
# Assay type in all cases: cell-based
# [1] = system: TNF-α release from microglia; assay: TNF-α release from LPS/IFNγ stimulated microglia, TNF-α ELISA (Example 11); conditions: 50 uM compound, TNF-α release, 10 ug LPS and 10 ng IFNγ, 24 hours
# Method in brief: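 Microglia pretreated 1 h with 50 μM bis-/tris-dihydroxyaryl compound, then stimulated with 10 μg/ml LPS + 10 ng/ml IFNγ for 24 h. Medium sampled, stored at −80°, diluted 1:50 and TNF-α measured by ELISA.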
# microglia = assay: Ranking of NO release inhibition (Example 12); conditions: Microglia, ranking table
# Source text: The bis- and tris-dihydroxyaryl compounds were ranked in order of effectiveness for the inhibition of NO release as set out in Table 8.
# Microglial cells = assay: Dose response inhibition of NO release from microglia, 0.5-500 μM (Example 9); conditions: for inhibition at 0.5 µM / inhibition at 1 µM / inhibition at 100 µM / inhibition at 250 µM / inhibition at 500 µM / μM NO release / μM NO release (No LPS average subtracted) / % inhibition: 48 hours; for μM NO release / μM NO release (No LPS average subtracted): 3 replicates
# Experimental: This experiment was designed to determine the dose response inhibition of NO release from microglia by bis- and tris-dihydroxyaryl compounds when stimulated with LPS/IFNγ. Earlier experiments have demonostrated that some bis- and tris-dihydroxyaryl compounds are good inhibitors of NO release from microglia. This experiment is designed to determine a dose response for various effective bis- and tris-dihydroxyaryl compounds. Microglial cells were plated into 96 well plates at 1×10^5 cells/ml. At 48 hours, media was exchanged for media containing 10 ng/ml IFNγ and 10 μg/ml LPS and the following compounds 3, 4, 21, 26 and the positive control L-NAME. The doses tested were: 0.5 μM, 1.0 μM, 5.0 μM, 10 μM, 25 μM, 50 μM, 100 μM, 250 μM, and 500 μM. Nitric oxide release was measured after 48 hours using the Griess reaction.
# [2] = system: EOC 13.31 microglia cells; assay: Inhibition of NO release from microglia following 24 hours pretreatment (Example 10); conditions: for inhibition at 50 µM: Microglia
# Method in brief: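 Confluent EOC 13.31 cells pretreated 24 hours with 50 μM compound (from 10 mM DMSO stock), then stimulated with 10 μg/ml LPS plus 10 ng/ml IFNγ without media change. After a further 48 hours, NO release was measured by Griess Reaction.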
structure (smiles),measurement,setting,value
"Oc1ccc(CNCc2ccc(O)c(O)c2)cc1O [Compound 73, bis(3,4-dihydroxybenzyl)amine]",% inhibition,"[1]; individual replicates, 50 µM",−51.44% and −31.47% and −54.79%
same,inhibition at 50 µM,"[1]; Microglia, 24 h, read-out: Avg % Inhibition",-45.9%
same,inhibition at 50 µM,microglia,2%
same,inhibition at 0.5 µM,"Microglial cells; Microglia, 48 h, dose 0.5 μM, NO release, LPS/IFNγ, read-out: Avg % Inhibition",12.7%
same,inhibition at 0.5 µM,"Microglial cells; Microglia, 48 h, dose 0.5 μM, individual replicates, NO release, LPS/IFNγ, read-out: % inhibition",15.5%
same,inhibition at 1 µM,"Microglial cells; Microglia, 48 h, dose 1 μM, NO release, LPS/IFNγ, read-out: Avg % Inhibition",16.5%
same,inhibition at 1 µM,"Microglial cells; Microglia, 48 h, dose 1 μM, individual replicates, NO release, LPS/IFNγ, read-out: % inhibition",17.7%
same,inhibition at 5 µM,"Microglial cells; Microglia, 48 h, dose 5 μM, NO release, LPS/IFNγ",1.5%
same,inhibition at 10 µM,"Microglial cells; Microglia, 48 h, dose 10 μM, NO release, LPS/IFNγ",1.75%
same,inhibition at 25 µM,"Microglial cells; Microglia, 48 h, dose 25 μM, NO release, LPS/IFNγ",0.75%
same,inhibition at 50 µM,"Microglial cells; Microglia, 48 h, dose 50 μM, NO release, LPS/IFNγ",0.25%
same,inhibition at 100 µM,"Microglial cells; Microglia, 48 h, dose 100 μM, NO release, LPS/IFNγ, read-out: Avg % Inhibition",33%
same,inhibition at 100 µM,"Microglial cells; Microglia, 48 h, dose 100 μM, individual replicates, NO release, LPS/IFNγ, read-out: % inhibition",31.2%
same,inhibition at 250 µM,"Microglial cells; Microglia, 48 h, dose 250 μM, NO release, LPS/IFNγ, read-out: Avg % Inhibition",45.3%
same,inhibition at 250 µM,"Microglial cells; Microglia, 48 h, dose 250 μM, individual replicates, NO release, LPS/IFNγ, read-out: % inhibition",46.7%
same,inhibition at 500 µM,"Microglial cells; Microglia, 48 h, dose 500 μM, NO release, LPS/IFNγ, read-out: Avg % Inhibition",72.3%
same,inhibition at 500 µM,"Microglial cells; Microglia, 48 h, dose 500 μM, individual replicates, NO release, LPS/IFNγ, read-out: % inhibition",72.6%
same,inhibition at 500 µM,"Microglial cells; Microglia, 48 h, highest concentration tested (500 μM), read-out: inhibited NO release by",72%
same,μM NO release,"Microglial cells; dose 0.5 μM, LPS/IFNγ",17.361 µM and 18.194 µM and 18.056 µM
same,μM NO release (No LPS average subtracted),"Microglial cells; dose 0.5 μM, LPS/IFNγ",15.66 µM and 16.49 µM and 16.36 µM
same,% inhibition,"Microglial cells; dose 0.5 μM, individual replicates, NO release, LPS/IFNγ",10.99% and 11.74%
same,μM NO release,"Microglial cells; dose 1 μM, LPS/IFNγ",16.944 µM and 16.806 µM and 17.778 µM
same,μM NO release (No LPS average subtracted),"Microglial cells; dose 1 μM, LPS/IFNγ",15.25 µM and 15.11 µM and 16.08 µM
same,% inhibition,"Microglial cells; dose 1 μM, individual replicates, NO release, LPS/IFNγ",18.49% and 13.25%
same,μM NO release,"Microglial cells; dose 5 μM, LPS/IFNγ",20.000 µM and 19.583 µM and 20.278 µM
same,μM NO release (No LPS average subtracted),"Microglial cells; dose 5 μM, LPS/IFNγ",18.30 µM and 17.88 µM and 18.58 µM
same,% inhibition,"Microglial cells; dose 5 μM, individual replicates, NO release, LPS/IFNγ",1.25% and 3.50% and −0.25%
same,μM NO release,"Microglial cells; dose 10 μM, LPS/IFNγ",18.889 μM and 20.417 μM (2×)
same,μM NO release (No LPS average subtracted),"Microglial cells; dose 10 μM, LPS/IFNγ",17.19 μM and 18.72 μM (2×)
same,% inhibition,"Microglial cells; dose 10 μM, individual replicates, NO release, LPS/IFNγ",7.24% and −1.00% (2×)
same,μM NO release,"Microglial cells; dose 25 μM, LPS/IFNγ",19.167 µM and 20.139 µM and 20.972 µM
same,μM NO release (No LPS average subtracted),"Microglial cells; dose 25 μM, LPS/IFNγ",17.47 µM and 18.44 µM and 19.27 µM
same,% inhibition,"Microglial cells; dose 25 μM, individual replicates, NO release, LPS/IFNγ",5.75% and 0.50% and −4.00%
same,μM NO release,"Microglial cells; dose 50 μM, LPS/IFNγ",19.444 µM and 19.861 µM and 21.250 µM
same,μM NO release (No LPS average subtracted),"Microglial cells; dose 50 μM, LPS/IFNγ",17.74 µM and 18.16 µM and 19.55 µM
same,% inhibition,"Microglial cells; dose 50 μM, individual replicates, NO release, LPS/IFNγ",4.25% and 2.00% and −5.50%
same,μM NO release,"Microglial cells; dose 100 μM, LPS/IFNγ",14.444 µM and 13.056 µM and 14.861 µM
same,μM NO release (No LPS average subtracted),"Microglial cells; dose 100 μM, LPS/IFNγ",12.74 µM and 11.36 µM and 13.16 µM
same,% inhibition,"Microglial cells; dose 100 μM, individual replicates, NO release, LPS/IFNγ",38.72% and 28.98%
same,μM NO release,"Microglial cells; dose 250 μM, LPS/IFNγ",11.569 µM and 10.904 µM and 13.056 µM
same,μM NO release (No LPS average subtracted),"Microglial cells; dose 250 μM, LPS/IFNγ",9.87 µM and 9.20 µM and 11.36 µM
same,% inhibition,"Microglial cells; dose 250 μM, individual replicates, NO release, LPS/IFNγ",50.33% and 38.72%
same,μM NO release,"Microglial cells; dose 500 μM, LPS/IFNγ",6.782 µM and 6.516 µM and 7.181 µM
same,μM NO release (No LPS average subtracted),"Microglial cells; dose 500 μM, LPS/IFNγ",5.08 µM and 4.82 µM and 5.48 µM
same,% inhibition,"Microglial cells; dose 500 μM, individual replicates, NO release, LPS/IFNγ",74.01% and 70.42%
same,μM NO release,"[2]; 50 uM pretreatment 24 hours, then LPS/IFNγ 48 hours, single replicates",0.000 µM
same,inhibition at 50 µM,"[2]; 50 uM pretreatment 24 hours, then LPS/IFNγ 48 hours, read-out: Avg % Inhibition",100%
same,inhibition at 50 µM,"[2]; 50 uM pretreatment 24 hours, then LPS/IFNγ 48 hours, single replicates, read-out: % inhibition",100%
same,inhibition at 50 µM,"[2]; 50 μM pretreatment, read-out: inhibition of NO release following pretreatment",> 75%
